Data from patent US20030134859A1 (SANKYO COMPANY, LIMITED, priority 2000, published 2003).
Where two headings read alike, the source gives them in different places.

Key:
leptin production = assay: Enhancing activity for leptin production in adipocytes (ELISA); assay type: cell-based, rat; details: Rattus norvegicus, Adipocyte, leptin concentration as % of control group, read-out: Facilitating activity to produce leptin; for activity at 0.001 µM: 1 nm; for activity at 0.01 µM: 10 nm; for activity at 0.1 µM: 100 nm
Experimental: Hanks solution was used for collection of adipose tissue. The Hanks solution was prepared by filtration of a mixed solution (pH: 7.5) of 120 mM NaCl, 4.8 mM KCl, 0.74 mM MgSO4, 0.30 mM Na2HPO4, 0.40 mM KH2PO4, 20 mM HEPES, 0.05% (w/v) glucose, 2% (w/v) BSA (Sigma-Aldrich Japan K. K., Cat. No. A7888), 0.95 mM CaCl2, 4.17 mM NaHCO3 and 1% (v/v) penicillin-streptomycin liquid (GIBCO BRL, Cat. No. 15140-122). The adipocytes were cultured in Dulbecco's modified Eagle's medium (GIBCO BRL, Cat. No. 11995-040) mixed with DMEM/F-12 (GIBCO BRL, Cat. No. 11320-033) at a ratio of 1:1, and added 0.2% (v/v) Hanks solution, 0.2 μg/L sodium selenite (GIBCO BRL, Cat. No. 13012-018), 0.002% (v/v) ethanolamine, 25 mM HEPES and 1% (v/v) penicillin-streptomycin liquid (GIBCO BRL, Cat. No. 15140-122). As many as possible of the other reagents used were special grade. In this experiment, the cells were cultured in a CO2 incubator (37° C., 95% humidity, 5% CO2).
Male Wistar Imamichi rats of 6 weeks old were sacrificed by bleeding following decapitation, and adipose tissue was removed from the epididymis and sectioned after the vessels were removed in warmed Hanks solution at 37° C. and were weighed. One (1) mL of Hanks solution containing 10 mg collagenase (Wako Pure Chemical Industries, Ltd., 034-10533) was added to the adipose tissue prepared. The solution was transferred into a tube having a volume of 50 mL, and the cells were evenly dispersed by incubation under gentle shaking at 37° C., 90 rpm, for 50 min. Then 20 mL of Hanks solution were added and filtrated through Nylon-mesh with a mesh diameter of 200 μm for removal of undigested tissue pieces. The floating adipocytes were separated from sediments and substances located in the lower layer by centrifugation at 1,000 rpm for 1 min at room temperature. The sediment and 22 mL of the low layer were pulled out with a probe, and the floating adipocytes were recovered. This procedure was repeated twice with Hanks solution and for 4 times with the culture medium. After these procedures the adipocytes were suspended in the culture medium at a volume of 60 mL per 1 g of the adipose tissue weighed previously. 100 μL of the suspended solution were plated in each well of a 96-well microplate (ASAHI TECHNO GLASS Corp.) In the group treated with the test compound, 1 μL/well of DMSO solution containing the dissolved the test compound at concentrations of 200 μM, 20 μM, 2 μM and 0.2 μM (final concentrations of the test compound: 1 μM, 100 nM, 10 nM and 1 nM, respectively) was plated in each of the well. In the control group, 1 μL/well of DMSO (final concentration: 0.1% (v/v)) was plated in each well. The plate was placed stationary in a CO2 incubator for 1 hr or longer, and the contents in the solution were equilibrated at 37° C. After they were equilibrated, the solution in each well was stirred with a magnetic stirrer in a water bath and the suspended solution maintained at 37° C. was plated into each well of the plate at 100 μL/well. After incubation of the cells for 24 hr, the suspended solution of cells was filtrated through a filter for the microplate, MultiScreen (MILLOPORE, MDV-N65). The concentration of leptin in the filtrated solution was determined with ELISA methods by using a Rat Leptin Determination Kit-IBL (Immuno-Biological Laboratories Co., Ltd., Cat. No. 17195). The facilitating activity of the compound to produce leptin was calculated from the following equation based on the concentration of leptin determined.
Facilitating Activity of the Compound to Produce Leptin (%)=(A/B)×100
A: Concentration of Leptin in the Treated Group with the Test Compound.
B: Concentration of Leptin in the Control Group.

Rat white adipocytes = assay: Inhibition of the differentiation of adipocytes (Oil Red O); assay type: cell-based; details: 100 nM test compound, 5 days, Oil Red O ABS550, control = 100%, blank = 0%, Table 3; for activity at 0.1 µM: Rattus norvegicus, Adipocyte, 120 h, read-out: Rate of Differentiation (%)
Experimental: Rat white adipocytes contained in the white adipocyte culture kit purchased from HOKUDO were used. As the medium for proliferation and for differentiation-inducing, the medium contained in the white adipocyte culture kit purchased from HOKUDO was used. The cells in the present experiment were cultured in a CO2 incubator (37° C., 95% R.H., 5% CO2).
Immediately after arrival of the purchased cells, all medium for transportation was discarded and replaced with 5 ml of proliferation medium (/25 cm^2-flask) and the cells were cultured for one day. Then, a cell suspension was prepared with proliferation medium so as to be 83,000 cells/mL, and the cell suspension was plated into a type I 96-well collagen-coated microplate (SUMITOMO BAKELITE CO., ltd.) so as to be 5,000 cells/well (60 μL/well).
On the next day, all the proliferation medium was discarded and replaced with 147 μL/well of differentiation-inducing medium. Further, 1) in the group treated with the test compound, 3 μL/well of the solution, in which a test compound (100 μM) was dissolved in DMSO solution and diluted with differentiation-inducing medium by 20 times (final concentration of the test compound: 100 nM, final concentration of DMSO solution: 0.1% (v/v)), were added to the well where the cells were plated. 2) In the control group, 3 μL/well of DMSO solution that was diluted with differentiation-inducing medium by 20 times (final concentration of DMSO: 0.1% (v/v)) were added to the well where the cells were plated. Further, 3) in the blank group, 3 μL/well of DMSO solution that was diluted with differentiation-inducing medium by 20 times (final concentration: 0.1% (v/v)), was added to the blank well.
After culturing for 5 days, all differentiation-inducing medium was discarded and replaced with 60 μL of 10% (v/v) formaldehyde solution (for fixation) in each well and the cells were kept stationary for 20 min at room temperature. After this, the fixative solution was discarded and replaced with 60 μL of 0.2% (v/v) Triton X (Sigma-Aldrich Japan K. K.) solution in each well and kept stationary for 5 min at room temperature. Then all Triton X solution was discarded and replaced with 60 μL of 60% (v/v) isopropanol solution containing dissolved Oil Red O (Sigma-Aldrich Japan K. K.) so as to be 0.3%, which was adipose tissue staining solution, and the well was left stationary for 10 min at room temperature. After the adipose tissue staining solution was discarded, the well was washed twice with 60 JIL of 60% isopropanol solution. Then, 100 μL of the DMSO solution were added to each well and stirred for 5 min at room temperature, The absorbance was measured at 550 nm (ABS550) with a multi-plate reader (LabSystems), and the stained amount with Oil Red O was determined. The measured level at ABS550 in the control group was defined as 100%, while the level at ABS550 in the blank group was defined as 0%. The differentiation rate (%) of the adipocytes treated with the test compound was calculated.

CC(C)(C)OC(=O)N1CCN(c2ccc(NC(=O)c3cc([N+](=O)[O-])ccc3Cl)cc2)CC1 [Example 132, N-[4-(4-tert-Butoxycarbonylpiperazin-1-yl)phenyl]-(2-chloro-5-nitrophenyl)carboxamide]
activity at 1 µM (leptin production; 24 h): 127% | activity at 0.001 µM (leptin production; 24 h): 123% | activity at 0.01 µM (leptin production; 24 h): 137% | activity at 0.1 µM (leptin production; 24 h): 119% | activity at 0.1 µM (Rat white adipocytes): 26.9%

O=C(Nc1ccc(-c2ccc(NC(=O)c3cc([N+](=O)[O-])ccc3Cl)cc2)cc1)c1cc([N+](=O)[O-])ccc1Cl [Example 163, 4-[4-[(2-Chloro-5-nitrophenyl)carbonylamino)phenyl]phenyl-(2-chloro-5-nitrophenyl)carboxamide]
activity at 1 µM (leptin production; 24 hr): 124% | activity at 0.001 µM (leptin production; 24 hr): 108% | activity at 0.01 µM (leptin production; 24 hr): 117% | activity at 0.1 µM (leptin production; 24 hr): 118% | activity at 0.1 µM (Rat white adipocytes): 48%

O=C(Nc1ccc(-c2ccc(-n3cccc3)cc2)cc1)c1cc([N+](=O)[O-])ccc1Cl [Example 186, N-[4-[4-(Pyrrol-1-yl)phenyl]phenyl]-(2-chloro-5-nitrophenyl)carboxamide]
activity at 1 µM (leptin production; 24 h): 133% | activity at 0.01 µM (leptin production; 24 h): 118% | activity at 0.1 µM (leptin production; 24 h): 117% | activity at 0.1 µM (Rat white adipocytes): 56.3%

CCCCCCN(CCC)c1ccc(-c2ccc(NC(=O)c3cc([N+](=O)[O-])ccc3Cl)cc2)cc1 [Example 198, N-[4-[4-(N-Hexyl-N-propylamino)phenyl]phenyl]-(2-chloro-5-nitrophenyl)carboxamide]
activity at 1 µM (leptin production; 24 h): 111% | activity at 0.1 µM (leptin production; 24 h): 111% | activity at 0.1 µM (Rat white adipocytes): 48.2%

CN1c2ccccc2N=C(c2ccc(NC(=O)c3cc([N+](=O)[O-])ccc3Cl)cc2)c2cc3c(cc21)C(C)(C)CCC3(C)C [Example 240, N-[4-(5,7,7,10,10-Pentamethyl-7,8,9,10-tetrahydro-5H-5,13-diazabenzo[4,5]cyclohepta[1,2-b]naphthalen-12-yl)phenyl]-(2-chloro-5-nitrophenyl)carboxamide]
activity at 0.1 µM (Rat white adipocytes): 35.2%

NC(=O)Nc1ccc(-c2ccc(NC(=O)c3cc([N+](=O)[O-])ccc3Cl)cc2)cc1 [Example 243, N-[4-[4-(Aminocarbonylamino)phenyl]phenyl]-(2-chloro-5-nitrophenyl)carboxamide]
activity at 0.1 µM (Rat white adipocytes): 41.1%

COc1cccc(NC(=O)Nc2ccc(-c3ccc(NC(=O)c4cc([N+](=O)[O-])ccc4Cl)cc3)cc2)c1 [Example 247, N-[4-[4-[(3-Methoxyphenyl)aminocarbonylamino]phenyl]phenyl]-(2-chloro-5-nitrophenyl)carboxamide]
activity at 0.1 µM (Rat white adipocytes): 54%

O=C(NC(=S)Nc1ccc(-c2ccc(NC(=O)c3cc([N+](=O)[O-])ccc3Cl)cc2)cc1)c1ccccc1 [Example 250, N-[4-[4-(Benzoylaminothiocarbonylamino)phenyl]phenyl]-(2-chloro-5-nitrophenyl)carboxamide]
activity at 0.1 µM (Rat white adipocytes): 40.8%

Nc1nc(-c2ccc(NC(=O)c3cc([N+](=O)[O-])ccc3Cl)cc2)cs1 [Example 255, N-[4-(2-Aminothiazol-4-yl)phenyl]-(2-chloro-5-nitrophenyl)carboxamide]
activity at 0.1 µM (Rat white adipocytes): 55%

CC(C)(C)OC(=O)Nc1ccc2nc(NC(=O)c3cc([N+](=O)[O-])ccc3Cl)sc2c1 [Example 260, N-[(6-tert-Butoxycarbonylamino)benzothiazol-2-yl]-(2-chloro-5-nitrophenyl)carboxamide]
Rate of Differentiation (%) (Rat white adipocytes): 84.6%

CC(=O)Nc1nc(-c2ccc(NC(=O)c3cc([N+](=O)[O-])ccc3Cl)cc2)cs1 [Example 265, N-[4-(2-Acetylaminothiazol-4-yl)phenyl]-(2-chloro-5-nitrophenyl)carboxamide]
activity at 0.1 µM (Rat white adipocytes): 80.8%

CC(=O)Nc1nc(-c2cccc(NC(=O)c3cc([N+](=O)[O-])ccc3Cl)c2)cs1 [Example 266, N-[3-(2-Acetylaminothiazol-4-yl)phenyl]-(2-chloro-5-nitrophenyl)carboxamide]
activity at 0.1 µM (Rat white adipocytes): 63.5%

CCOC(=O)NC(=S)NCCc1ccc(NC(=O)c2cc([N+](=O)[O-])ccc2Cl)cc1 [Example 272, N-[4-(2-Ethoxycarbonylaminothiocarbonylaminoethyl)phenyl]-(2-chloro-5-nitrophenyl)carboxamide]
activity at 0.1 µM (Rat white adipocytes): 41.7%

O=C(Nc1cccc(CCO)c1)c1cc([N+](=O)[O-])ccc1Cl [Example 275, N-[3-(2-Hydroxyethyl)phenyl]-(2-chloro-5-nitrophenyl)carboxamide]
activity at 0.1 µM (Rat white adipocytes): 47.9%

N-[4-(3-Methanesulfonylaminophenyl)thioazol-2-yl]-(2-chloro-5-nitrophenyl)carboxamide [Example 278]
Rate of Differentiation (%) (Rat white adipocytes): 68.6%
